In US8222244B2, “Staurosporine derivatives as inhibitors of FLT3 receptor tyrosine kinase activity” (Novartis AG, priority 2001, dated 2012):

biological target: T1, human Flt-3 (Homo sapiens, UniProt P36888); test: Tyrosine protein kinase assay with purified GST-Flt-3 (33P incorporation); type: biochemical; conditions: at a 1.0 micromolar concentration
T1 construct: expresses the amino acid region amino acids 563-993 of the intra-cytoplasmic kinase domains of human Flt-3; made in house; host or cells: Sf9 insect cells (baculovirus, pFbacG01 donor vector)
T1 sequence (P36888 563-993): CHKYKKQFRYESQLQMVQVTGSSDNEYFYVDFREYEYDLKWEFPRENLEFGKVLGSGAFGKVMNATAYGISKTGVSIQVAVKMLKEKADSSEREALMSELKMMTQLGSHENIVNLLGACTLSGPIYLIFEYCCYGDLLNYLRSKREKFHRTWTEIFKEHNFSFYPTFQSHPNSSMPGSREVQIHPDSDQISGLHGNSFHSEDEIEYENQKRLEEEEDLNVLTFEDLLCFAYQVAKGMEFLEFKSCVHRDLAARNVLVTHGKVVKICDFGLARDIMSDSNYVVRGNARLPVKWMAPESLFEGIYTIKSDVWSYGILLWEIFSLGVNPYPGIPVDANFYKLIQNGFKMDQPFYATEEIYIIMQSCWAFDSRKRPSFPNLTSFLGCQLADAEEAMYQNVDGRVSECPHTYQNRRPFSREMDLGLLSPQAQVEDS
Method: ATP into appropriate substrates.
The coding sequences for the cytoplasmic domain of Flt-3 was amplified by PCR from human c-DNA libraries (Clontech). The amplified DNA fragments and the pFbacG01 vector were made compatible for ligation by digestion with BamH1 and Hind III. […] The production of the viruses, the expression of proteins in Sf9 cells and the purification of the GST-fused proteins were performed as following:
(Generation of Bac- to Bac GST-fusion vectors); pFbacG01, pFbacGST2T and pFbacGSTx3 Bac-to-Bac™ donor vectors were generated from pAcG1, pAcG2T and pAcG3X respectively, which facilitate the expression of GST-fusion proteins with the possibility of cleavage with thrombin (pFbacGT2) or factor Xa (pFbacGSTx3) while pFbacG01 expresses no proteolytic cleavage site. These were generated in house by isolation of the DNA fragment containing the gene for GST with the C-terminal protease and restriction sites by restriction enzyme digestion of the relevant PharMingen baculovirus donor vector with EcoRV and EcoRI. This EcoRV/EcoRI fragment was ligated into the pFastBac1 vector which had been restriction digested with BamHI, blunt-ended by Klenow reaction and subsequently digested with EcoRI to generate a blunt-ended/EcoRI vector. (Production of virus); Transfer vectors containing the kinase domains were transfected into the DH10Bac cell line (GIBCO) and plated on selective agar plates. Colonies without insertion of the fusion sequence into the viral genome (carried by the bacteria) are blue. Single white colonies were picked and viral DNA (bacmid) isolated from the bacteria by standard plasmid purification procedures. Sf9 cells or Sf21 cells were then transfected in 25 cm^2 flasks with the viral DNA using Cellfectin reagent. (Determination of small scale protein expression in Sf9 cells); Virus containing media was collected from the transfected cell culture and used for infection to increase its titer. Virus containing media obtained after two rounds of infection was used for large-scale protein expression. For large-scale protein expression 100 cm^2 round tissue culture plates were seeded with 5×10^7 cells/plate and infected with 1 mL of virus-containing media (approx. 5 MOIs). After 3 days the cells were scraped off the plate and centrifuged at 500 rpm for 5 min. Cell pellets from 10-20, 100 cm^2 plates, were resuspended in 50 mL of ice-cold lysis buffer (25 mMTris-HCl, pH7.5, 2 mMEDTA, 1% NP-40, 1 mM DTT, 1 mMP MSF). The cells were stirred on ice for 15 min and then centrifuged at 5000 rpms for 20 min.
ATP 0.1 μCi). […] ATP into appropriate substrates. […] Subsequently, 40 μL of the reaction mixture were transferred onto Immobilon-PVDF membrane (Millipore, Bedford, Mass., USA) previously soaked for 5 min with methanol, rinsed with water, then soaked for 5 min with 0.5% H3PO4 and mounted on vacuum manifold with disconnected vacuum source. After spotting all samples, vacuum was connected and each well rinsed with 200 μL 0.5% H3PO4. Membranes were removed and washed 4× on a shaker with 1.0% H3PO4, once with ethanol. Membranes were counted after drying at ambient temperature, mounting in Packard TopCount 96-well frame, and addition of 10 μL/well of Microscint™ (Packard). […] One unit of protein kinase activity is defined as 1 nmole of ^33P ATP transferred from [γ^33P] ATP to the substrate protein per minute per mg of protein at 37° C.

Compound | Flt3 Inhibition (percent inhibition of Flt3 kinase activity)
COC1C(=NOC(C)=O)CC2OC1(C)n1c3ccccc3c3c4c(c5c6ccccc6n2c5c31)C(=O)NC4 (stereo not drawn) [187457-78-9, [9S-(9a,10b,13a)]-2,3,9,10,12,13-Hexahydro-10-methoxy-9-methyl-9,13-epoxy-1H,11H-diindolo[1,2,3-gh:3′,2′,1′-lm]pyrrolo[3,4-j][1,7]benzodiazonine-1,11-dione, 11-(O-acetyloxime)] | 77%
[9S-(9a,10b,11b,13a)]-(2,3,10,11,12,13-Hexahydro-10-methoxy-9-methyl-1,3-dioxo-9,13-epoxy-1H,9H-diindolo[1,2,3-gh:3′,2′,1′-lm]pyrrolo[3,4-j][1,7]benzodiazonin-11-yl)methyl-carbamic acid, 1,1-dimethylethyl ester [154589-93-2] | 67%
(9a,10b,11b,13a)-11-[(N-Acetyl-1-deoxymuramoyl)methylamino]-2,3,10,11,12,13-hexahydro-10-methoxy-9-methyl-9,13-epoxy-1H,9H-diindolo[1,2,3-gh:3′,2′,1′-lm]pyrrolo[3,4-j][1,7]benzodiazonin-1-one [149622-63-9] | 98%
CO[C@@H]1[C@H](N(C)C(=O)c2ccccc2)C[C@H]2O[C@]1(C)n1c3ccccc3c3c4c(c5c6ccccc6n2c5c31)C(=O)NC4=O [154589-96-5, [9S-(9a,10b,11b,13a)]-N-(2,3,10,11,12,13-Hexahydro-10-methoxy-9-methyl-1,3-dioxo-9,13-epoxy-1H,9H-diindolo[1,2,3-gh:3′,2′,1′-lm]pyrrolo[3,4-j][1,7]benzodiazonin-11-yl)-N-methyl-benzamide] | 63%
(9a,10b,11b,13a)-11-[(N-Acetyl-6-O-acetyl-1-deoxymuramoyl)methylamino]-2,3,10,11,12,13-hexahydro-10-methoxy-9-methyl-, 11-[(N-acetyl-6-O-acetyl-1-deoxymuramoyl)methylamino]-2,3,10,11,12,13-hexahydro-10-methoxy-9-methyl-9,13-epoxy-1H,9H-diindolo[1,2,3-gh:3′,2′,1′-lm]pyrrolo[3,4-j][1,7]benzodiazonin-1-one [149622-68-4] | 93%
COC1C(N(C)C(=O)CNC(=O)OCc2ccccc2)CC2OC1(C)n1c3ccccc3c3c4c(c5c6ccccc6n2c5c31)C(=O)NC4 (stereo not shown) [125035-78-1, (9a,10b,11b,13a)-[2-[(2,3,10,11,12,13-Hexahydro-10-methoxy-9-methyl-1-oxo-9,13-epoxy-1H,9H-diindolo[1,2,3-gh:3′,2′,1′-lm]pyrrolo[3,4-j][1,7]benzodiazonin-11-yl)methylamino]-2-oxoethyl]-carbamic acid, phenylmethyl ester] | 52%
11-[[N-Acetyl-1-O-methyl-4,6-O-(phenylmethylene)-a-normuramoyl]methylamino]-2,3,10,11,12,13-hexahydro-10-methoxy-9-methyl-9,13-epoxy-1H,9H-diindolo[1,2,3-gh:3′,2′,1′-lm]pyrrolo[3,4-j][1,7]benzodiazonin-1-one [149622-43-5] | 66%
COC1C(N(C)C(=O)c2cccnc2)CC2OC1(C)n1c3ccccc3c3c4c(c5c6ccccc6n2c5c31)C(=O)NC4 (stereo not drawn) [155848-16-1, [9S-(9a,10b,11b,13a)]-N-(2,3,10,11,12,13-Hexahydro-10-methoxy-9-methyl-1-oxo-9,13-epoxy-1H,9H-diindolo[1,2,3-gh:3′,2′,1′-lm]pyrrolo[3,4-g][1,7]benzodiazonin-11-yl)-N-methyl-3-pyridinecarboxamide] | 89%
COC1C(N(C)C(=O)C(C)OC2CCOCC2)CC2OC1(C)n1c3ccccc3c3c4c(c5c6ccccc6n2c5c31)C(=O)NC4 (stereo not drawn) [160335-31-9, [9S-[9a,10b,11b(R*),13a]]-N-(2,3,10,11,12,13-Hexahydro-10-methoxy-9-methyl-1-oxo-9,13-epoxy-1H,9H-diindolo[1,2,3-gh:3′,2′,1′-lm]pyrrolo[3,4-j][1,7]benzodiazonin-11-yl)-N-methyl-2-[(tetrahydro-2H-pyran-4-yl)oxy]-propanamide] | 90%
CO[C@@H]1[C@H](N)C[C@H]2O[C@]1(C)n1c3ccccc3c3c4c(c5c6ccccc6n2c5c31)C(=O)NC4 [126221-77-0, (9S,10R,11R,13R)-11-Amino-2,3,10,11,12,13-hexahydro-10-methoxy-9-methyl-9,13-epoxy-1H,9H-diindolo[1,2,3-gh:3′,2′,1′-lm]pyrrolo[3,4-j][1,7]benzodiazonin-1-one] | 96%
(2,3,10,11,12,13-hexahydro-10-methoxy-9-methyl-1-oxo-9,13-epoxy-1H,9H-diindolo[1,2,3-gh:3′,2′,1′-lm]pyrrolo[3,4-j][1,7]benzodiazonin-11-yl)methyl-carbamic acid, phenylmethyl ester [159404-67-8] | 64%
(9a,10b,11b,13a)-11-[[N-Acetyl-1-O-(phenylmethyl)-a-muramoyl]methylamino]-2,3,10,11,12,13-hexahydro-10-methoxy-9-methyl-9,13-epoxy-1H,9H-diindolo[1,2,3-gh:3′,2′,1′-lm]pyrrolo[3,4-j][1,7]benzodiazonin-1-one [149622-39-9] | 72%
11-[[N-Acetyl-1-deoxy-4,6-O-(phenylmethylene)muramoyl]methylamino]-2,3,10,11,12,13-hexahydro-10-methoxy-9-methyl-9,13-epoxy-1H,9H-diindolo[1,2,3-gh:3′,2′,1′-lm]pyrrolo[3,4-j][1,7]benzodiazonin-1-one [149622-49-1] | 74%
COC1C(N(C)C(=O)C(F)(F)F)CC2OC1(C)n1c3ccccc3c3c4c(c5c6ccccc6n2c5c31)C(=O)NC4 [120685-12-3, 2,2,2-Trifluoro-N-[(9S,10R,11R,13R)-2,3,10,11,12,13-hexahydro-10-methoxy-9-methyl-1-oxo-9,13-epoxy-1H,9H-diindolo[1,2,3-gh:3′,2′,1′-lm]pyrrolo[3,4-j][1,7]benzodiazonin-11-yl]-N-methyl-acetamide] | 66%
CO[C@@H]1[C@H](N(C)C(=O)CNC(=O)OC(C)(C)C)C[C@H]2O[C@]1(C)n1c3ccccc3c3c4c(c5c6ccccc6n2c5c31)C(=O)NC4 [124078-43-9, [9S-(9a,10b,11b,13a)]-[2-[(2,3,10,11,12,13-Hexahydro-10-methoxy-9-methyl-1-oxo-9,13-epoxy-1H,9H-diindolo[1,2,3-gh:3′,2′,1′-lm]pyrrolo[3,4-j][1,7]benzodiazonin-11-yl)methylamino]-2-oxoethyl]-carbamic acid, 1,1-dimethylethyl ester] | 65%
COC1C(=O)CC2OC1(C)n1c3ccccc3c3c4c(c5c6ccccc6n2c5c31)C(=O)NC4 [178276-05-6, (9S,10S,13R)-2,3,9,10,12,13-Hexahydro-10-methoxy-9-methyl-9,13-epoxy-1H,11H-diindolo[1,2,3-gh:3′,2′,1′-lm]pyrrolo[3,4-j][1,7]benzodiazonine-1,11-dione] | 88%
